# According to patent US10626094B2 (La Jolla Institute of Allergy & Immunology, priority 2014, dated 2020):
# Target: LMPTP-A (Low Molecular Weight Protein Tyrosine Phosphatase-A) enzyme (Homo sapiens (Human), UniProt P24666)
# Experiment: LMPTP primary screening / LMPTP (OMFP) enzyme inhibition assay, fluorescence intensity
# Assay type: biochemical
# Details: IC50 (nM), LMPTP-A, OMFP substrate, method of Example 2
# Protocol: This assay attempts to identify inhibitors of the LMPTP-A (Low Molecular Weight Protein Tyrosine Phosphatase-A) enzyme. It is run in 1536-well format and is measured via fluorescence intensity.
# A listing of materials is provided: • Item, source, catalog no. • LMPTP-A Enzyme Stock Solution (4.22 mg/ml or 206.8 μM), SBMRI Protein Facility, • N/A • OMFP, Sigma, M2629-100MG • Bis-Tris pH 6.0, Fisher Sci, BP301-100 • Triton-X 100, Sigma, T9284 • DTT, Sigma, D9779 • Mol. Grade Water, Mediatech, Inc., 46-000-CM • 1536-well black High base opaque bottom plate, Nexus Biosystems, 00019120
# Final assay conditions are: • 0.625 nM LMPTP-A Enzyme • 400 μM OMFP • 50 mM Bis-Tris pH 6.0 • 1 mM DTT • 0.01% Triton-X 100 • 20 μM test compound • 3% DMSO (2% from substrate and 1% from compounds) • 6 μL reaction volume • 50 minutes incubation at room temp
# Assay Procedure • 1. Prepare Reagents as described in section F. Recipe. • 2. Using LabCyte Echo, transfer 60 nL from 2 mM test compound source plate into assay plate Col. 5-48 (final concentration of test compounds is 20 μM). 60 nL of DMSO should be transferred to col. 1-4 for positive and negative control wells. • 3. Spin plates at 1000 rpm for 1 minute in centrifuge. • 4. […] Using the Bioraptr, add 3 μL/well of enzyme solution to col. 3-48. • 6. Using the Bioraptr, add 3 μL/well of substrate solution to col. 1-48. • 7. Spin plates at 1000 rpm for 1 minute in centrifuge. • 8. Incubate plates in the dark at room temperature for 50 minutes. • 9. Read plates on PerkinElmer Viewlux using a FI protocol.
# Sequence of LMPTP-A (Low Molecular Weight Protein Tyrosine Phosphatase-A) enzyme (P24666 whole entry): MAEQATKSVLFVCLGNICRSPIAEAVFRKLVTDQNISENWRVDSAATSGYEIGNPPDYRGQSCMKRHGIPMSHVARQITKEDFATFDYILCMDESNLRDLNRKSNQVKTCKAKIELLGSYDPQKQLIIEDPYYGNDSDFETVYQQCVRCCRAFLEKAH
row,Compound,IC50
1,"COc1ccc(-c2cc(Nc3ccccn3)c3ccccc3n2)cc1 [Compound G63, [2-(4-Methoxy-phenyl)-quinolin-4-yl]-pyridin-2-yl-amine]",801 to 5000 nM

# Same assay, conditions: LMPTP-A, OMFP substrate, method of Example 2; read-out: IC50
row,IC50,Compound
1,> 5000 nM,"c1ccc(-c2cc(NCCN3CCCC3)c3ccccc3n2)cc1 [Compound I181, (2-phenyl(4-quinolyl))(2-pyrrolidinylethyl)amine]"
2,801 to 5000 nM,CC(=O)Nc1cccc(-c2cc(NCCCN3CCCCC3)c3ccccc3n2)c1 [Compound I118]
3,801 to 5000 nM,c1ccc2c(NCCCN3CCCCC3)cc(-c3ccc4[nH]ccc4c3)nc2c1 [Compound I110]
4,> 5000 nM,CCN(CC)S(=O)(=O)c1ccc(C)c(-c2cc(NCCCN3CCCCC3)c3ccccc3n2)c1 [Compound I242]
5,801 to 5000 nM,2-(3-bromo-4-chloro-2-fluorophenyl)(4-quinolyl)](3-piperidylpropyl)amine [Compound I101]
6,801 to 5000 nM,"c1c[nH]c(-c2cc(NCCCC3CCCNC3)c3ccccc3n2)c1 (stereo not shown) [Compound I175, (3-piperidylpropyl)(2-pyrrol-2-yl(4-quinolyl))amine]"
7,801 to 5000 nM,Cc1cccc(-c2cc(NCCCN3CCCCC3)c3ccccc3n2)c1C [Compound I161]
8,801 to 5000 nM,Fc1cccc(F)c1-c1cc(NCCCN2CCCCC2)c2ccccc2n1 [Compound I130]
9,801 to 5000 nM,CN(C)c1cccc(-c2cc(NCCCN3CCCCC3)c3ccccc3n2)c1 [Compound I129]
10,> 5000 nM,"NC(=O)c1ccc(-c2cc(NCc3ccc(CN4CCOCC4)cc3)c3ccccc3n2)cc1 [Compound I212, 4-[4-({[4-(morpholin-4-ylmethyl)phenyl]methyl}amino)-2-quinolyl]benzamide]"
11,801 to 5000 nM,c1ccc2c(NCCCN3CCCCC3)cc(-c3ccc4scnc4c3)nc2c1 [Compound I224]
12,> 5000 nM,CCN(CC)S(=O)(=O)c1cccc(-c2cc(NCCCN3CCCCC3)c3ccccc3n2)c1 [Compound I244]
13,801 to 5000 nM,FC(F)(F)c1ccc(Oc2ccc(-c3cc(NCCCN4CCCCC4)c4ccccc4n3)cn2)cc1 [Compound I87]
14,801 to 5000 nM,FC(F)(F)c1ccc(-c2cc(NCCCC3CCCNC3)c3ccccc3n2)c(Cl)c1 (stereo not shown) [Compound I120]
15,200 to 800 nM,NCCCNC(=O)c1ccc(-c2cc(NCCCN3CCCCC3)c3ccccc3n2)cc1 [Compound I195]
16,801 to 5000 nM,Fc1cc(F)cc(-c2cc(NCCCN3CCCCC3)c3ccccc3n2)c1 [Compound I85]
17,801 to 5000 nM,COc1ncc(-c2cc(NCCCN3CCCCC3)c3ccccc3n2)c(OC)n1 [Compound I141]
18,801 to 5000 nM,O=C(NC1CC1)c1ccc(-c2cc(NCCCN3CCCCC3)c3ccccc3n2)cc1 [Compound I271]
19,801 to 5000 nM,"CCN1CCN(Cc2ccc(Nc3cc(-c4ccc(OC)cc4)nc4c3CCCC4)cc2)CC1 [Compound I206, {4-[(4-ethylpiperazinyl)methyl]phenyl}[2-(4-methoxyphenyl)(4-5,6,7,8-tetrahydroquinolyl)]amine]"

# Second part, the compound before the results:
row,Compound,IC50
1,"COc1ccc(-c2cc(Nc3ccc4ccccc4n3)c3ccccc3n2)cc1 [Compound G68, [2-(4-methoxyphenyl)(4-quinolyl)]-2-quinolylamine]",801 to 5000 nM
2,"COc1ccc(-c2cc(Nc3cccc(CC4CCN(C)CC4)c3)c3ccccc3n2)cc1 [Compound I31, [2-(4-methoxyphenyl)(4-quinolyl)]{3-[(1-methyl(4-piperidyl))methyl]phenyl}amine]",200 to 800 nM
3,CN(C)CCNC(=O)c1ccc(-c2cc(NCCCN3CCCCC3)c3ccccc3n2)cc1 [Compound I66],200 to 800 nM
4,"COc1ccc(-c2cc(Nc3ccc(CC4CCN(S(C)(=O)=O)CC4)cc3)c3ccccc3n2)cc1 [Compound I35, 4-[(4-{[2-(4-methoxyphenyl)(4-quinolyl)]amino}phenyl)methyl]-1-(methylsulfonyl)piperidine]",801 to 5000 nM
5,"COc1ccc(-c2cc(Nc3ccc(CC4CCN(C(C)=O)CC4)cc3)c3ccccc3n2)cc1 [Compound I34, 1-acetyl-4-[(4-{[2-(4-methoxyphenyl)(4-quinolyl)]amino}phenyl)methyl]piperidine]",801 to 5000 nM
6,"CN1CCCC1CCNc1cc(-c2cc(C(F)(F)F)cc(C(F)(F)F)c2)nc2ccccc12 (stereo not shown) [Compound I46, {2-[3,5-bis(trifluoromethyl)phenyl](4-quinolyl)}[2-(1-methylpyrrolidin-2-yl)ethyl]amine]",> 5000 nM
7,"CCN(CC)Cc1cccc(Nc2cc(-c3ccc(OC)cc3)nc3ccccc23)c1 [Compound G61, (3-Diethylaminomethyl-phenyl)-[2-(4-methoxy-phenyl)-quinolin-4-yl]-amine]",801 to 5000 nM
8,"COc1ccc(-c2cc(Nc3ccc(CN(C)C)cc3)c3ccccc3n2)cc1 [Compound I26, [(4-{[2-(4-methoxyphenyl)(4-quinolyl)]amino}phenyl)methyl]dimethylamine]",801 to 5000 nM
9,"COc1ccc(-c2cc(Nc3cccc(Cc4nn[nH]n4)c3)c3ccccc3n2)cc1 [Compound I27, [2-(4-methoxyphenyl)(4-quinolyl)][3-(2H-1,2,3,4-tetraazol-5-ylmethyl)phenyl]amine]",801 to 5000 nM
10,{2-[3-chloro-2-(phenylmethoxy)(4-pyridyl)](4-quinolyl)}(3-piperidylpropyl)amine [Compound I88],801 to 5000 nM
11,"COc1ccc(-c2cc(NCCCN3CCCCC3)c3cc(OC(F)(F)F)ccc3n2)cc1 [Compound G31, [2-(4-Methoxy-phenyl)-6-trifluoromethoxy-quinolin-4-yl]-(3-piperidin-1-yl-propyl)-amine]",> 5000 nM
12,"c1ccc2c(NCCCN3CCCCC3)cc(-c3ccc(OC4CCCCO4)cc3)nc2c1 (stereo not shown) [Compound I1I3, [2-(4-(2H-3,4,5,6-tetrahydropyran-2-yloxy)phenyl)(4-quinolyl)](3-piperidylpropyl)amine]",801 to 5000 nM
13,"Cc1nc(C)c(-c2cc(N(C)C)c3ccccc3n2)s1 [Compound G21, [2-(2,4-Dimethyl-thiazol-5-yl)-quinolin-4-yl]-dimethyl-amine]",> 5000 nM
14,"O=C(c1ccc(-c2cc(NCCCN3CCCCC3)c3ccccc3n2)cc1)N1CCCC1 [Compound I84, 4-{4-[(3-piperidylpropyl)amino](2-quinolyl)}phenyl pyrrolidinyl ketone]",801 to 5000 nM
15,"Fc1ccc(Nc2cc(-c3ccccc3C(F)(F)F)nc3ccccc23)cc1 [Compound G34, (4-Fluoro-phenyl)-[2-(2-trifluoromethyl-phenyl)-quinolin-4-yl]-amine]",801 to 5000 nM
16,"Cc1cccc(-c2cc(NCCCN3CCCCC3)c3ccccc3n2)c1 [Compound G9, (3-Piperidin-1-yl-propyl)-(2-m-tolyl-quinolin-4-yl)-amine]",801 to 5000 nM
17,O=C(NCCCO)c1ccc(-c2cc(NCCCN3CCCCC3)c3ccccc3n2)cc1 [Compound I67],200 to 800 nM
18,"COc1ccc(-c2cc(Nc3cccc(CN4CCCCC4)c3)c3ccccc3n2)cc1 [Compound G54, [2-(4-methoxyphenyl)(4-quinolyl)][3-(piperidylmethyl)phenyl]amine]",801 to 5000 nM
19,"CN(C)Cc1cccc(Nc2cc(-c3ccc(C(N)=O)cc3)nc3ccccc23)c1 [Compound I4, 4-[4-({3-[(dimethylamino)methyl]phenyl}amino)-2-quinolyl]benzamide]",> 5000 nM
20,"Clc1cccc(-c2cc(Nc3cccc(CC4CCNCC4)c3)c3ccccc3n2)c1 [Compound I20, [2-(3-chlorophenyl)(4-quinolyl)][3-(4-piperidylmethyl)phenyl]amine]",801 to 5000 nM
